The values that follow come from ChEMBL document CHEMBL3739426, “Synthesis and biological evaluation of novel 2-isoxazoline fused cyclopentane derivatives as potential antimicrobial and anticancer agents” (Medchemcomm, 2015).

SMILES strings stand for the structures. ≈ marks a conversion by molar mass, not a printed value. A value given as a limit tells only on which side of the number the result lay.

One experiment deals with Priestia megaterium. Put plainly: Antimicrobial activity against Bacillus megaterium by cup plate diffusion method. It counts as functional.
The next experiment relates to MCF7. Description: Cytotoxicity against human MCF7 cells after 48 hrs by MTT assay. Particulars: MCF7, 48 h. It counts as functional, cell-based. Background: Tetrazolium dyes change colour on reduction, which living cells bring about.
Another experiment deals with A549. Description: Cytotoxicity against human A549 cells after 48 hrs by MTT assay. Particulars: A549, 48 h. It counts as functional, cell-based.
A further experiment deals with Candida albicans. Put plainly: Antimicrobial activity against Candida albicans by cup plate diffusion method. The format is functional.
For the next experiment, the system named is Bacillus subtilis. Description: Antimicrobial activity against Bacillus subtilis by cup plate diffusion method. The format is functional.
A further experiment deals with HeLa. Description: Cytotoxicity against human HeLa cells after 48 hrs by MTT assay. The format is functional, cell-based.
Experiment [1] can be described thus: Cytotoxicity against human PC3 cells after 48 hrs by MTT assay. Particulars: PC-3, 48 h. It counts as functional, cell-based.
Another experiment deals with Pseudomonas sp. Description: Antimicrobial activity against Pseudomonas sp. by cup plate diffusion method. It counts as functional.
In a further experiment the test system is Escherichia coli. Put plainly: Antimicrobial activity against Escherichia coli by cup plate diffusion method. The format is functional.
The test system of a further experiment is HT-29. Put plainly: Cytotoxicity against human HT-29 cells after 48 hrs by MTT assay. The format is functional, cell-based. To be noted: HT-29, 48 h.

As a reminder, the MIC is the least concentration at which growth counts as inhibited. As a reminder, the IC50 is the concentration needed to halve the response being measured. With `O=C(O)[C@H]1C[C@@H](C(=O)O)[C@H]2ON=C(c3ccc4ccccc4c3)[C@H]21`, the MIC against Priestia megaterium, against Candida albicans, in the experiment with Bacillus subtilis, with Pseudomonas sp. and with Escherichia coli was over 100 µg/mL throughout. The IC50 with MCF7 was 31.8 µg/mL (≈ 97.7 µM); with A549 it was over 50 µg/mL; in the experiment with HeLa, over 50 µg/mL; in experiment [1] it was over 50 µg/mL; with HT-29, 29.7 µg/mL (≈ 91.3 µM).
In the case of `COC(=O)[C@H]1C[C@@H](C(=O)OC)[C@H]2ON=C(c3ccc(Cl)cc3)[C@H]21`, the MIC with Priestia megaterium, against Candida albicans, in the experiment with Bacillus subtilis, against Pseudomonas sp. and in the experiment with Escherichia coli was over 100 µg/mL throughout. In addition, the 50% inhibitory concentration (IC50) (in the experiment with MCF7; in the experiment with A549; in the experiment with HeLa; in experiment [1]; in the experiment on HT-29) was over 50 µg/mL in each case.
For `COC(=O)[C@H]1C[C@@H](C(=O)OC)[C@H]2ON=C(c3ccc(Br)cc3)[C@H]21`, the MIC in the experiment on Priestia megaterium, against Candida albicans, against Bacillus subtilis, in the experiment with Pseudomonas sp. and against Escherichia coli was over 100 µg/mL in each case. Also, the IC50 in the experiment on MCF7 was over 50 µg/mL; in the experiment on A549 it was over 50 µg/mL; in the experiment on HeLa, 27.4 µg/mL (≈ 71.7 µM); in experiment [1] it was over 50 µg/mL; with HT-29 it was over 50 µg/mL.
For the molecule `OC[C@@H]1C[C@H](CO)[C@@H]2C(c3ccc(Cl)cc3)=NO[C@H]12`, the MIC in the experiment with Priestia megaterium, against Candida albicans, against Bacillus subtilis, in the experiment with Pseudomonas sp. and against Escherichia coli was over 100 µg/mL throughout. In addition, the half-inhibitory concentration (IC50) in the experiment on MCF7 is 14.7 µg/mL (≈ 52.2 µM); in the experiment on A549, over 50 µg/mL; with HeLa, over 50 µg/mL; in experiment [1] it was over 50 µg/mL; in the experiment with HT-29 it was 22.9 µg/mL (≈ 81.3 µM).
Turning to `COc1ccc(C2=NO[C@@H]3[C@H](CO)C[C@H](CO)[C@H]23)cc1OC`, the MIC in the experiment on Priestia megaterium was 46.8 µg/mL (≈ 152 µM); in the experiment on Candida albicans, 4.6 µg/mL (≈ 15 µM); in the experiment with Bacillus subtilis it was 46.8 µg/mL (≈ 152 µM); in the experiment on Pseudomonas sp. it was 1.2 µg/mL (≈ 3.9 µM); against Escherichia coli it was 0.92 µg/mL (≈ 2.99 µM). Also, the IC50 (with MCF7; in the experiment with A549; in the experiment with HeLa; in [1]; in the experiment on HT-29) was over 50 µg/mL in each case.
`O=C(O)[C@H]1C[C@@H](C(=O)O)[C@H]2ON=C(c3ccccc3Cl)[C@H]21`: the MIC against Priestia megaterium, with Candida albicans, with Bacillus subtilis, against Pseudomonas sp. and in the experiment with Escherichia coli was over 100 µg/mL each time. Moreover, the IC50 (with MCF7; with A549; in the experiment with HeLa; in [1]; in the experiment with HT-29) was over 50 µg/mL each time.
As for `Cc1ccc(C2=NO[C@@H]3[C@H](CO)C[C@H](CO)[C@H]23)cc1`, the MIC against Priestia megaterium, in the experiment with Candida albicans, in the experiment with Bacillus subtilis, in the experiment on Pseudomonas sp. and with Escherichia coli was over 100 µg/mL in each case. The half-maximal inhibitory concentration (IC50) is over 50 µg/mL with MCF7; over 50 µg/mL with A549; 26.5 µg/mL (≈ 101 µM) with HeLa; 28 µg/mL (≈ 107 µM) in experiment [1]; over 50 µg/mL in the experiment with HT-29.
In the case of `COC(=O)[C@H]1C[C@@H](C(=O)OC)[C@H]2ON=C(c3ccc(F)cc3)[C@H]21`, the MIC in the experiment on Priestia megaterium, in the experiment on Candida albicans, with Bacillus subtilis, in the experiment with Pseudomonas sp. and against Escherichia coli was over 100 µg/mL throughout. The IC50 in the experiment with MCF7 was 39.4 µg/mL (≈ 123 µM); with A549, over 50 µg/mL; in the experiment with HeLa, 20.1 µg/mL (≈ 62.6 µM); in experiment [1], over 50 µg/mL; in the experiment on HT-29 it was over 50 µg/mL.
Take `N#Cc1ccc(C2=NO[C@H]3[C@@H]2[C@@H](C(=O)O)C[C@H]3C(=O)O)cc1`: the MIC against Priestia megaterium, with Candida albicans, in the experiment with Bacillus subtilis, against Pseudomonas sp. and against Escherichia coli was over 100 µg/mL each time. In addition, the IC50 in the experiment with MCF7 is over 50 µg/mL; with A549, over 50 µg/mL; in the experiment on HeLa it was 33.3 µg/mL (≈ 111 µM); in [1], over 50 µg/mL; in the experiment on HT-29 it was 30.3 µg/mL (≈ 101 µM).
For `COc1ccc(C2=NO[C@@H]3[C@H](CO)C[C@H](CO)[C@H]23)cc1`, the MIC in the experiment with Priestia megaterium, with Candida albicans, in the experiment on Bacillus subtilis, in the experiment on Pseudomonas sp. and in the experiment with Escherichia coli was over 100 µg/mL in each case. The IC50 with MCF7 was 23.7 µg/mL (≈ 85.5 µM); in the experiment on A549, 36.6 µg/mL (≈ 132 µM); in the experiment on HeLa, over 50 µg/mL; in [1], over 50 µg/mL; with HT-29, over 50 µg/mL.
Turning to `COc1ccc(C2=NO[C@H]3[C@@H]2[C@@H](C(=O)O)C[C@H]3C(=O)O)cc1OC`, the minimum inhibitory concentration (MIC) is over 100 µg/mL against Priestia megaterium; 81.6 µg/mL (≈ 243 µM) against Candida albicans; over 100 µg/mL in the experiment on Bacillus subtilis; 44.2 µg/mL (≈ 132 µM) in the experiment with Pseudomonas sp.; 88.4 µg/mL (≈ 264 µM) against Escherichia coli. Besides, the IC50 in the experiment with MCF7 is over 50 µg/mL; with A549, over 50 µg/mL; in the experiment on HeLa it was over 50 µg/mL; in experiment [1], over 50 µg/mL; in the experiment on HT-29, 40.6 µg/mL (≈ 121 µM).
With `OC[C@@H]1C[C@H](CO)[C@@H]2C(c3ccccc3Cl)=NO[C@H]12`, the MIC was over 100 µg/mL with Priestia megaterium; over 100 µg/mL in the experiment with Candida albicans; 74.4 µg/mL (≈ 264 µM) against Bacillus subtilis; over 100 µg/mL in the experiment on Pseudomonas sp.; over 100 µg/mL in the experiment on Escherichia coli. Further, the IC50 in the experiment with MCF7 was over 50 µg/mL; in the experiment on A549 it was over 50 µg/mL; in the experiment on HeLa it was over 50 µg/mL; in [1] it was over 50 µg/mL; in the experiment on HT-29, 33.8 µg/mL (≈ 120 µM).
For the molecule `O=C(O)[C@H]1C[C@@H](C(=O)O)[C@H]2ON=C(c3ccc(F)cc3)[C@H]21`, the MIC was over 100 µg/mL against Priestia megaterium; over 100 µg/mL against Candida albicans; over 100 µg/mL in the experiment with Bacillus subtilis; 7.8 µg/mL (≈ 26.6 µM) with Pseudomonas sp.; 78 µg/mL (≈ 266 µM) with Escherichia coli. Further, the half-inhibitory concentration (IC50) (in the experiment on MCF7; in the experiment with A549; in the experiment on HeLa; in experiment [1]; in the experiment on HT-29) was over 50 µg/mL in each case.
For the molecule `COC(=O)[C@H]1C[C@@H](C(=O)OC)[C@H]2ON=C(c3ccc(C)cc3)[C@H]21`, the MIC against Priestia megaterium, against Candida albicans, against Bacillus subtilis, against Pseudomonas sp. and in the experiment with Escherichia coli was over 100 µg/mL each time. The IC50 (in the experiment on MCF7; with A549; in the experiment on HeLa; in experiment [1]; with HT-29) was over 50 µg/mL throughout.
Regarding `COC(=O)[C@H]1C[C@@H](C(=O)OC)[C@H]2ON=C(c3ccccc3Cl)[C@H]21`, the MIC against Priestia megaterium, with Candida albicans, against Bacillus subtilis, in the experiment on Pseudomonas sp. and in the experiment on Escherichia coli was over 100 µg/mL throughout. The IC50 (in the experiment with MCF7; in the experiment on A549; with HeLa; in experiment [1]; with HT-29) was over 50 µg/mL throughout.
Consider `Cc1ccc(C2=NO[C@H]3[C@@H]2[C@@H](C(=O)O)C[C@H]3C(=O)O)cc1`, for which the minimal inhibitory concentration (MIC) against Priestia megaterium, in the experiment on Candida albicans, with Bacillus subtilis, against Pseudomonas sp. and against Escherichia coli was over 100 µg/mL each time. Besides, the IC50 (with MCF7; in the experiment with A549; in the experiment with HeLa; in experiment [1]; with HT-29) was over 50 µg/mL each time.
For `OC[C@@H]1C[C@H](CO)[C@@H]2C(c3ccc(Br)cc3)=NO[C@H]12`, the minimum inhibitory concentration (MIC) was 48.6 µg/mL (≈ 149 µM) against Priestia megaterium; over 100 µg/mL with Candida albicans; 48.6 µg/mL (≈ 149 µM) in the experiment with Bacillus subtilis; over 100 µg/mL against Pseudomonas sp.; over 100 µg/mL in the experiment on Escherichia coli. Further, the IC50 is over 50 µg/mL in the experiment with MCF7; over 50 µg/mL in the experiment on A549; over 50 µg/mL with HeLa; over 50 µg/mL in [1]; 37.3 µg/mL (≈ 114 µM) in the experiment on HT-29.
With `O=C(O)[C@H]1C[C@@H](C(=O)O)[C@H]2ON=C(c3ccc(Br)cc3)[C@H]21`, the MIC in the experiment on Priestia megaterium was found to be 10.5 µg/mL (≈ 29.6 µM); against Candida albicans it was 8.7 µg/mL (≈ 24.6 µM); in the experiment on Bacillus subtilis, 10.5 µg/mL (≈ 29.6 µM); with Pseudomonas sp. it was 22 µg/mL (≈ 62.1 µM); in the experiment on Escherichia coli, 2.2 µg/mL (≈ 6.21 µM). The 50% inhibitory concentration (IC50) in the experiment on MCF7 is over 50 µg/mL; in the experiment on A549, over 50 µg/mL; with HeLa it was 45.6 µg/mL (≈ 129 µM); in experiment [1], over 50 µg/mL; in the experiment with HT-29, over 50 µg/mL.
For the molecule `COc1ccc(C2=NO[C@H]3[C@@H]2[C@@H](C(=O)O)C[C@H]3C(=O)O)cc1`, the minimal inhibitory concentration (MIC) against Priestia megaterium, against Candida albicans, in the experiment on Bacillus subtilis, against Pseudomonas sp. and against Escherichia coli was over 100 µg/mL each time. Further, the IC50 (in the experiment with MCF7; in the experiment on A549; in the experiment on HeLa; in experiment [1]; with HT-29) was over 50 µg/mL each time.
Turning to `N#Cc1ccc(C2=NO[C@@H]3[C@H](CO)C[C@H](CO)[C@H]23)cc1`, the MIC is 21 µg/mL (≈ 77.1 µM) in the experiment on Priestia megaterium; 11 µg/mL (≈ 40.4 µM) in the experiment on Candida albicans; 21 µg/mL (≈ 77.1 µM) in the experiment with Bacillus subtilis; 2.1 µg/mL (≈ 7.71 µM) against Pseudomonas sp.; 2.1 µg/mL (≈ 7.71 µM) with Escherichia coli. Further, the IC50 (in the experiment with MCF7; in the experiment with A549; with HeLa; in experiment [1]; in the experiment with HT-29) was over 50 µg/mL in each case.
